Paper PMC6882468 (Journal of Enzyme Inhibition and Medicinal Chemistry, 2019)

Columns and labels:
p38α = system: p38α; set-up: method as in PMID 17664068; conditions: Figure 1; cited from earlier work
COX-2 = target: T1, COX-2 (Homo sapiens, UniProt P35354); assay: COX-2 inhibition assay in vitro (COX Inhibitor Screening Kit, fluorometric); conditions: for SI (COX-1/COX-2): IC50 (COX-1)/IC50 (COX-2)
T1 sequence (P35354 18-604): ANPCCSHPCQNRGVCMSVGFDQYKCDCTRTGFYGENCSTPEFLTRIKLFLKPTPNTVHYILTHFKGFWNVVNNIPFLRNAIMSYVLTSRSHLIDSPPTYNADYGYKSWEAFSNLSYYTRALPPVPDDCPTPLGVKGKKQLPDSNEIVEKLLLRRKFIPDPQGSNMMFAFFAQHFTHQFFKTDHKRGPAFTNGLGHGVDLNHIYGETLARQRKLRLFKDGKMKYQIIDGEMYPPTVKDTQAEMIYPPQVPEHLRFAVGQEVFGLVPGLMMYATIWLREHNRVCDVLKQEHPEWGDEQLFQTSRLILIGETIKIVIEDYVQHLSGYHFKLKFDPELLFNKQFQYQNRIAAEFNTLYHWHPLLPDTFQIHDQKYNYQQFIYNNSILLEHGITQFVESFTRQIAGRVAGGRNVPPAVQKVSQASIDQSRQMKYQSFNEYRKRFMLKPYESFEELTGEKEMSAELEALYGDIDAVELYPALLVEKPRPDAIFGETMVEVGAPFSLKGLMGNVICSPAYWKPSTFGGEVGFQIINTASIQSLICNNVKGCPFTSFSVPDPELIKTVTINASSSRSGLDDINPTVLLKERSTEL

[1] = system: DNFB-induced mouse model of allergic contact dermatitis; assay: DNFB-induced mouse model of allergic contact dermatitis (ear swelling); format: in vivo, Male ICR mice; conditions: for Swelling degree / Inhibition (%) of ear swelling: mice, 5 mg/kg intragastric once a day for 6 days; for Swelling degree: ear slices weighed 24 h after DNFB challenge, Mean ± SD, n = 6; for Inhibition (%) of ear swelling: vs model group; for in vivo inhibitory activity, in words: p.o. 5 mg/kg, p < 0.01
Protocol: Male ICR mice (20 ± 2 g) were obtained from the Experimental Animal Centre of Anhui Medical University (Hefei, China). The mice reared in a pathogen-free setting (23 ± 2 °C, 55 ± 5% humidity) with free access to water and pelleted food throughout the experimental cycle. All experimental procedures performed in accordance with guide for the Care and Use of Laboratory Animals (National Research Council, 1996) and were approved by the Experimental Animal Ethics Committee of Anhui University of Chinese Medicine (Hefei, China). After 7 days acclimatisation, the mice were randomly divided into control group, ACD model group, dexamethasone positive control group and 20 compound groups, six in each group. The control group and the model group were given the same dose of the vehicle, the positive control group was given dexamethasone 0.5 mg/kg, and the test compound groups were given compound 5 mg/kg, all of which were given by intragastric administration and were administered once a day for 6 days. Except for the control group, the 50 µL of 1% DNFB (in acetone/olive oil 4:1) was administered to the stripped epidermis, and repeated the next day. After 6 days of drug treatment, 10 µL of 1% DNFB acetone olive oil solution was applied on both sides of the right ear to stimulate inflammation, and equivalent acetone olive oil solution was applied on the left ear for comparison. […] Calculation was carried out according to the following equations. Swelling degree (mg) = MR – ML Inhibitory rate of ear swelling (%)=((MR – ML) model – (MR – ML) treated)/(MR – ML) model ×100% MR=Average weight of the right ear slices;ML= Average weight of the left ear slices […] Dexamethasone (DEX) at a p.o. dose of 0.5 mg/kg was employed as the positive control. After the mice were sacrificed, the swelling degree and inhibition rate were calculated by weighing the same part of both ears.

COX-1 = target: T2, COX-1 (Ovis aries, UniProt P05979); assay: COX-1 inhibition assay in vitro (COX Inhibitor Screening Kit, fluorometric); format: biochemical
T2 construct: purchased BioVision, Inc
T2 sequence (P05979 25-600): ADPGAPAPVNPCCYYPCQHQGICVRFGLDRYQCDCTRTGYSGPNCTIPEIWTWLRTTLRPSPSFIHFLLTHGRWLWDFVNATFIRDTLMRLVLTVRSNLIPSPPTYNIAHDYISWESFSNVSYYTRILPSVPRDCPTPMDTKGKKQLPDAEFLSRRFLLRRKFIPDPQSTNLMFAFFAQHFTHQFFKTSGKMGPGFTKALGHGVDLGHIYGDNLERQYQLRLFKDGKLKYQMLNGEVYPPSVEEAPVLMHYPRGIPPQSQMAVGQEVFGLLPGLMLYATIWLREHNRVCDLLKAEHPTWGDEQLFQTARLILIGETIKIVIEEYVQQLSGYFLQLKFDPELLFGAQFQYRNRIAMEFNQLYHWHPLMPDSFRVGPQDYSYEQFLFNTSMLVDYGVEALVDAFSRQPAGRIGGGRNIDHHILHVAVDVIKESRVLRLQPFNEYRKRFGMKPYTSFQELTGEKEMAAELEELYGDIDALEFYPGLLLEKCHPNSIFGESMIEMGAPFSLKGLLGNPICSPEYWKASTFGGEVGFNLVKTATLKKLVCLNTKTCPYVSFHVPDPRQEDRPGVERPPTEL
Protocol: Simply, different concentrations of the test compound solution were added to the mixed solution containing COX-1/COX-2 enzyme (10 µL) and Assay Buffer (960 µL, 0.1 M Tris-HCl pH 8.0 containing 5 µM EDTA and 2 µM phenol). […] The IC50 values were calculated as described above.

p38α MAPK = p38α MAPK (Homo sapiens, UniProt Q16539); assay: p38α MAPK inhibition assay in vitro; format: biochemical; conditions: triplicate, read-out: IC50 p38p
Protocol: In brief, after mixing the enzyme reagent with the sample, a reaction mixture containing 200 µM biotin-peptide substrate and 600 µM ATP (+100 µCi/mL γ-^32 P-ATP) was added to initiate the reaction. […] Part of the reaction solution was transferred to the well of a streptavidin-coated flash plate, washed in PBS containing 0.01% Tween and sealed. The average value of counts per minute for each group and the IC50 value was calculated.
The average fluorescence values of each well were calculated and recorded as RFU (Relative Fluorescence Unit) blank control (RFU blank), RFU 100% enzyme activity control (RFU enzyme), RFU positive drug control (RFU drug) and RFU test compound (RFU compound). The inhibition rate is calculated according to the following formula. Inhibition rate (%)= (RFU (enzyme) – RFU (compound/drug) […]) /(RFU (enzyme) – RFU (blank)) * 100%
The IC50 value of the test compound was calculated by the concentration-inhibition reaction curve and the assays were performed in triplicate.

p38α MAPK, sequence (Q16539 whole entry): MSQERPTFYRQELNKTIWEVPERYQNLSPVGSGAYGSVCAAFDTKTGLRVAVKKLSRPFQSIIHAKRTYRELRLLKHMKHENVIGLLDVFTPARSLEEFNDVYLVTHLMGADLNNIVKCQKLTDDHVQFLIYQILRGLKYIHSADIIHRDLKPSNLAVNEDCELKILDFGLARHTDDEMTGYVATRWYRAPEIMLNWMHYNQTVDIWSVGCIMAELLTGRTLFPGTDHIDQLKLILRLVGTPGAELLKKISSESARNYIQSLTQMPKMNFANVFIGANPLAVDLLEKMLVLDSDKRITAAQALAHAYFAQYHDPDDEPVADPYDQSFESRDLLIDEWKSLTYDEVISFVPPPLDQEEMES

SMILES | IC50 (p38α) | IC50 (COX-2) | SI (COX-1/COX-2) (COX-2) | Swelling degree [1] | Inhibition (%) of ear swelling [1] | in vivo inhibitory activity, in words [1] | IC50 (COX-1) | IC50 (p38α MAPK)
COc1cc2[nH]ccc2cc1C(=O)N1CCN(Cc2ccccc2)CC1 [Compound 2] | 950 nM | – | – | – | – | – | – | –
CC(=O)c1ccccc1C(=O)N1CCN(Cc2cccc([N+](=O)[O-])c2)CC1 [Compound 6f, 1–(2-(4–(3-Nitrobenzyl)piperazine-1-carbonyl)phenyl)ethan-1-one] | – | 842 ± 62 nM | 1.41 | 9.9 ± 2.9 mg | 39.6% | significant inhibitory activity | 1190 ± 80 nM | 3410 ± 220 nM
CC(=O)c1ccccc1C(=O)N1CCN(Cc2ccc(F)cc2)CC1 [Compound 6j, 1–(2-(4–(4-Fluorobenzyl)piperazine-1-carbonyl)phenyl)ethan-1-one] | – | 22 ± 3 nM | 192.27 | 10.4 ± 3.1 mg | 36.6% | significant inhibitory activity | 4230 ± 230 nM | 8490 ± 570 nM
